Laboratory results from US20100086483A1, “METHOD OF MULTIDETECTOR COMPUTED TOMAGRAPHY” (Gilead Palo Alto, Inc., priority 2008, published 2010).

System: conscious dogs
Experiment: Effects of caffeine on regadenoson-induced coronary vasodilation and changes in hemodynamics in conscious dogs (Part II)
Format: in vivo, dog
Protocol: Sixteen chronically instrumented male mongrel dogs weighing from 22-30 kg were used in the study. The animal protocol was approved by the Institutional Animal Care and Use Committee of New York Medical College and conforms to the Guide for the Care and Use of Laboratory Animal by the United States National Institutes of Health.
Dogs were sedated with acepromazine (0.3 mg/kg, IM) and anesthetized with pentobarbital sodium (25 mg/kg, IV). After intubation, dogs were artificially ventilated with room air. A thoracotomy was made in the fifth intercostal space using sterile techniques. A Tygon catheter (Cardiovascular Instruments, Wakefield, Mass.) was inserted into the descending thoracic aorta and another one was inserted into the left atrium. In 9 dogs, an ultrasound flow transducer (Transonic Systems, Ithaca, N.Y.) was placed around the left circumflex coronary artery. A solid-state pressure gauge (P6.5, Konisberg Instruments, Pasadena, Calif.) was placed into the left ventricle through the apex. The chest was closed in layers. The catheters and wires were tunneled subcutaneously and externalized through the skin at the back of the dog's neck. Dogs were allowed to recover from the surgery before experiments were performed, and were trained to lie on a table.
Phasic arterial pressure was measured by connecting the aortic catheter to a strain gauge transducer (P23 ID, LDS Test and Measurement, Valley View, Ohio). Left ventricular pressures were measured by the solid pressure gauge. CBF (mL/min) was measured from an ultrasound flow transducer using a Transonic flowmeter (T206, Transonic Systems, Ithaca, N.Y.). Two indices were used to describe the regadenoson-induced coronary vasodilation: 1) the maximum increase in CBF and 2) the duration of the 2-fold increase in CBF (the period of time that CBF was elevated to a level ≧2-fold of baseline CBF). All pressure and flow data were acquired and analyzed using a Ponemah System (Version 3.30 or 4.20, LDS Test and Measurement, Valley View, Ohio). MAP and HR were calculated from phasic blood pressure, and LV dP/dtMax was calculated from the left ventricular systolic pressure.
On the day of an experiment, a dog was placed on a table, where it lay quietly during the experiment. A catheter was inserted into a peripheral vein in the leg and attached to an infusion line to administer drugs without disturbing the dog. The experiment was begun after MAP, HR and CBF were stable.
Each dog received an IV injection of 5 μg/kg of regadenoson. […] LVSP, LV dP/dtMax, MAP, HR and CBF were recorded continuously. Blood samples were taken from the left atrial catheter at 1, 3, 5, 15, 30, 45 and 60 min following injections of regadenoson.
In 4 dogs, two doses of regadenoson (5 μg/kg, IV) were given 90 min apart (without blood sampling) to determine if there is tachyphylaxis of regadenoson-induced coronary vasodilation.
The statistical significance of a difference between the value of a parameter at baseline and at the indicated time point after drug administration was determined using a One-Way Repeated Measures ANOVA followed by Tukey's Test. […] Results with p<0.05 were considered to be significant. […] All data are presented as Mean±SEM.

[1] = regadenoson 5 μg/kg IV in the presence of caffeine 1 mg/kg
[2] = regadenoson 5 μg/kg IV in the presence of caffeine 2 mg/kg
[3] = regadenoson 5 μg/kg IV in the presence of caffeine 4 mg/kg
[4] = regadenoson 5 μg/kg IV in the presence of caffeine 10 mg/kg
[5] = regadenoson 5 μg/kg IV without caffeine (control of caffeine 1 mg/kg group), 0.5 min
[6] = regadenoson 5 μg/kg IV without caffeine (control of caffeine 1 mg/kg group), 1 min
[7] = regadenoson 5 μg/kg IV without caffeine (control of caffeine 1 mg/kg group), 2 min
[8] = regadenoson 5 μg/kg IV without caffeine (control of caffeine 1 mg/kg group), 3 min
[9] = regadenoson 5 μg/kg IV without caffeine (control of caffeine 1 mg/kg group), 4 min
[10] = regadenoson 5 μg/kg IV without caffeine (control of caffeine 1 mg/kg group), 5 min
[11] = regadenoson 5 μg/kg IV without caffeine (control of caffeine 1 mg/kg group), 10 min
[12] = regadenoson 5 μg/kg IV without caffeine (control of caffeine 1 mg/kg group), 15 min
[13] = regadenoson 5 μg/kg IV without caffeine (control of caffeine 1 mg/kg group), 20 min
[14] = regadenoson 5 μg/kg IV without caffeine (control of caffeine 2 mg/kg group), 0.5 min
[15] = regadenoson 5 μg/kg IV without caffeine (control of caffeine 2 mg/kg group), 1 min
[16] = regadenoson 5 μg/kg IV without caffeine (control of caffeine 2 mg/kg group), 2 min
[17] = regadenoson 5 μg/kg IV without caffeine (control of caffeine 2 mg/kg group), 3 min
[18] = regadenoson 5 μg/kg IV without caffeine (control of caffeine 2 mg/kg group), 4 min
[19] = regadenoson 5 μg/kg IV without caffeine (control of caffeine 2 mg/kg group), 5 min
[20] = regadenoson 5 μg/kg IV without caffeine (control of caffeine 2 mg/kg group), 10 min
[21] = regadenoson 5 μg/kg IV without caffeine (control of caffeine 2 mg/kg group), 15 min
[22] = regadenoson 5 μg/kg IV without caffeine (control of caffeine 2 mg/kg group), 20 min
[23] = regadenoson 5 μg/kg IV without caffeine (control of caffeine 4 mg/kg group), 0.5 min
[24] = regadenoson 5 μg/kg IV without caffeine (control of caffeine 4 mg/kg group), 1 min
[25] = regadenoson 5 μg/kg IV without caffeine (control of caffeine 4 mg/kg group), 2 min
[26] = regadenoson 5 μg/kg IV without caffeine (control of caffeine 4 mg/kg group), 3 min
[27] = regadenoson 5 μg/kg IV without caffeine (control of caffeine 4 mg/kg group), 4 min

## CNC(=O)c1cnn(-c2nc(N)c3ncn([C@@H]4O[C@H](CO)[C@@H](O)[C@H]4O)c3n2)c1 [Regadenoson, (1-{9-[(4S,2R,3R,5R)-3,4-dihydroxy-5-(hydroxymethyl)oxolan-2-yl]-6-aminopurin-2-yl}pyrazol-4-yl)-N-methylcarboxamide]
In the presence of 1, 2 and 4 mg/kg caffeine
  time regadenoson-increased CBF remained at ≧2-fold baseline levels: ≥ 3 min
[1]
  decrease in LVSP from baseline: 9±3%
  peak decrease in MAP from baseline: 13±2%
[2]
  decrease in LVSP from baseline: 6±2%
  peak decrease in MAP from baseline: 13±1%
[3]
  decrease in LVSP from control (p>0.05): 1±5%
  peak decrease in MAP from baseline: 2±5%
[4]
  increase in LVSP from control: 11±7%
  increase in MAP from baseline (insignificant): 9±6%
Regadenoson 5 μg/kg IV with caffeine 1 mg/kg
  peak increase in HR from baseline: 124±12%
Regadenoson 5 μg/kg IV with caffeine 2 mg/kg
  peak increase in HR from baseline: 109±21%
Regadenoson 5 μg/kg IV with caffeine 4 mg/kg
  peak increase in HR from baseline: 79±20%
Regadenoson 5 μg/kg IV with caffeine 10 mg/kg
  peak increase in HR from baseline: 74±16%
[5]
  HR: 138 ± 10 bpm
  MAP: 97 ± 2 mm Hg
[6]
  HR: 144 ± 13 bpm
  MAP: 93 ± 3 mm Hg
[7]
  HR: 142 ± 9 bpm
  MAP: 92 ± 4 mm Hg
[8]
  HR: 131 ± 9 bpm
  MAP: 92 ± 3 mm Hg
[9]
  HR: 125 ± 8 bpm
  MAP: 94 ± 3 mm Hg
[10]
  HR: 121 ± 8 bpm
  MAP: 96 ± 3 mm Hg
[11]
  HR: 100 ± 7 bpm
  MAP: 97 ± 4 mm Hg
[12]
  HR: 94 ± 7 bpm
  MAP: 96 ± 4 mm Hg
[13]
  HR: 89 ± 7 bpm
  MAP: 96 ± 3 mm Hg
[14]
  HR: 160 ± 13 bpm
  MAP: 89 ± 5 mm Hg
[15]
  HR: 145 ± 7 bpm
  MAP: 89 ± 5 mm Hg
[16]
  HR: 150 ± 4 bpm
  MAP: 91 ± 5 mm Hg
[17]
  HR: 137 ± 5 bpm
  MAP: 91 ± 3 mm Hg
[18]
  HR: 127 ± 4 bpm
  MAP: 93 ± 4 mm Hg
[19]
  HR: 129 ± 6 bpm
  MAP: 90 ± 3 mm Hg
[20]
  HR: 104 ± 5 bpm
  MAP: 91 ± 2 mm Hg
[21]
  HR: 104 ± 6 bpm
  MAP: 96 ± 3 mm Hg
[22]
  HR: 93 ± 7 bpm
  MAP: 97 ± 3 mm Hg
[23]
  HR: 166 ± 18 bpm
  MAP: 107 ± 6 mm Hg
[24]
  HR: 163 ± 8 bpm
  MAP: 95 ± 5 mm Hg
[25]
  HR: 158 ± 6 bpm
  MAP: 99 ± 4 mm Hg
[26]
  HR: 141 ± 4 bpm
  MAP: 98 ± 4 mm Hg
[27]
  HR: 131 ± 6 bpm
  MAP: 100 ± 2 mm Hg
